Reference: US6479435B1, “Diaryl ethers and processes for their preparation and herbicidal and desiccant compositions containing them” (ISK Americas Incorporated, priority 1997, dated 2002)

Legend:
Type in all cases: in vivo
[1] = test system: Johnsongrass (Sorghum halepense, SORHA); test: Pre-emerge greenhouse herbicide test, phytotoxicity rating; conditions: 14 days after application, rating scale 0-100
Method in brief: (§1)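 Seeds sown in sandy loam one day before track-sprayer application of acetone solutions at 125–1000 g ai/ha (187 l/ha), then surface-watered to incorporate and bottom-watered. Injury scored visually at 14 days on a 0–100 scale (0 no damage, 100 complete death).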

[2] = test system: barnyardgrass (Echinochloa crusgalli, ECHCG); test: as above; conditions: 14 days after application, rating scale 0-100
Method in brief: as §1

[3] = test system: common ragweed (Ambrosia artemisiifolia L., AMBEL); test: as above; conditions: 14 days after application, rating scale 0-100
Method in brief: as §1

[4] = test system: green foxtail (Setaria viridis, SETVI); test: as above; conditions: 14 days after application, rating scale 0-100
Method in brief: as §1

[5] = test system: ivyleaf morningglory (Ipomoea hederacea, IPOHE); test: as above; conditions: 14 days after application, rating scale 0-100
Method in brief: as §1

[6] = test system: lambsquarters (Chenopodium album, CHEAL); test: as above; conditions: 14 days after application, rating scale 0-100
Method in brief: as §1

[7] = test system: large crabgrass (Digitaria sanguinalis, DIGSA); test: as above; conditions: 14 days after application, rating scale 0-100
Method in brief: as §1

[8] = test system: redroot pigweed (Amaranthus retroflexus, AMARE); test: as above; conditions: 14 days after application, rating scale 0-100
Method in brief: as §1

[9] = test system: sicklepod (Cassia obtusifolia, CASOB); test: as above; conditions: 14 days after application, rating scale 0-100
Method in brief: as §1

[10] = test system: velvetleaf (Abutilon theophrasti, ABUTH); test: as above; conditions: 14 days after application, rating scale 0-100
Method in brief: as §1

[11] = test system: field corn (Zea mays L., var. Dekalb 535, CORN); test: Pre-emerge greenhouse test, crop damage rating; conditions: 14 days after application, rating scale 0-100
Method in brief: as §1

[12] = test system: upland rice (Oryza sp., var.Tebonnet, RICE); test: Pre-emerge greenhouse test, crop damage rating; conditions: 14 days after application, rating scale 0-100
Method in brief: as §1

[13] = test system: soybean (Glycine max L., var. Pella 86, SOY); test: Pre-emerge greenhouse test, crop damage rating; conditions: 14 days after application, rating scale 0-100
Method in brief: as §1

[14] = test system: common ragweed (Ambrosia artemisiifolia L., AMBEL); test: Post-emerge greenhouse herbicide test, phytotoxicity rating; conditions: 14 days after application
Method in brief: (§2)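 Plants at the 2-3 leaf stage, sown 8-21 days earlier, were track-sprayed post-emergence with compound in acetone plus 0.25% v/v non-ionic surfactant at 63-1000 g ai/ha (187 l/ha). Damage was rated at 14 days on a 0-100 scale (0 none, 100 all plants dead), for both crop injury and weed control.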

[15] = test system: Johnsongrass (Sorghum halepense, SORHA); test: as above; conditions: 14 days after application
Method in brief: as §2

[16] = test system: barnyardgrass (Echinochloa crusgalli, ECHCG); test: as above; conditions: 14 days after application
Method in brief: as §2

[17] = test system: green foxtail (Setaria viridis, SETVI); test: as above; conditions: 14 days after application
Method in brief: as §2

[18] = test system: ivyleaf morningglory (Ipomoea hederacea, IPOHE); test: as above; conditions: 14 days after application
Method in brief: as §2

[19] = test system: lambsquarters (Chenopodium album, CHEAL); test: as above; conditions: 14 days after application
Method in brief: as §2

[20] = test system: large crabgrass (Digitaria sanguinalis, DIGSA); test: as above; conditions: 14 days after application
Method in brief: as §2

[21] = test system: redroot pigweed (Amaranthus retroflexus, AMARE); test: as above; conditions: 14 days after application
Method in brief: as §2

[22] = test system: velvetleaf (Abutilon theophrasti, ABUTH); test: as above; conditions: 14 days after application
Method in brief: as §2

[23] = test system: field corn (Zea mays L., var. Dekalb 535, CORN); test: Post-emerge greenhouse test, crop damage rating; conditions: 14 days after application
Method in brief: as §2

[24] = test system: upland rice (Oryza sp., var.Tebonnet, RICE); test: Post-emerge greenhouse test, crop damage rating; conditions: 14 days after application
Method in brief: as §2

[25] = test system: soybean (Glycine max L., var. Pella 86, SOY); test: Post-emerge greenhouse test, crop damage rating; conditions: 14 days after application
Method in brief: as §2

For `Cn1nc(-c2cc(Oc3ccc(C#N)cn3)c(Cl)cc2F)c(Cl)c1C(F)(F)F` [Compound 1-4], the “phytotoxicity rating SORHA” value ([1]; 125 g ai/ha) was 20, the “phytotoxicity rating SORHA” value ([1]; 500 g ai/ha) was 95 and the “phytotoxicity rating ECHCG” value ([2]; 125 g ai/ha) was 0. For the same compound, the “phytotoxicity rating ECHCG” value ([2]; 500 g ai/ha) was 20, the “phytotoxicity rating AMBEL” value ([3]; 125 g ai/ha) was 0 and the “phytotoxicity rating AMBEL” value ([3]; 500 g ai/ha) was 20. The “phytotoxicity rating SETVI” value ([4]; 125 g ai/ha) was 90, the “phytotoxicity rating SETVI” value ([4]; 500 g ai/ha) was 99 and the “phytotoxicity rating IPOHE” value ([5]; 125 g ai/ha) was 0. For the same compound, the “phytotoxicity rating IPOHE” value ([5]; 500 g ai/ha) was 30, the “phytotoxicity rating CHEAL” value ([6]; 125 g ai/ha) was 90 and the “phytotoxicity rating CHEAL” value ([6]; 500 g ai/ha) was 95. The “phytotoxicity rating DIGSA” value ([7]; 125 g ai/ha) was 50, the “phytotoxicity rating DIGSA” value ([7]; 500 g ai/ha) was 50 and the “phytotoxicity rating AMARE” value ([8]; 125 g ai/ha) was 100. The “phytotoxicity rating AMARE” value ([8]; 500 g ai/ha) was 100, the “phytotoxicity rating CASOB” value ([9]; 125 g ai/ha) was 0 and the “phytotoxicity rating CASOB” value ([9]; 500 g ai/ha) was 0. The “phytotoxicity rating ABUTH” value ([10]; 125 g ai/ha) was 0, the “phytotoxicity rating ABUTH” value ([10]; 500 g ai/ha) was 80 and the “crop damage rating CORN” value ([11]; 125 g ai/ha) was 10. For the same compound, the “crop damage rating CORN” value ([11]; 500 g ai/ha) was 0, the “crop damage rating RICE” value ([12]; 125 g ai/ha) was 30 and the “crop damage rating SOY” value ([13]; 125 g ai/ha) was 10. For the same compound, the “crop damage rating SOY” value ([13]; 500 g ai/ha) was 0, the “AMBEL phytotoxicity rating (0-100)” value ([14]; 63 g al/ha) was 20 and the “AMBEL phytotoxicity rating (0-100)” value ([14]; 500 g al/ha) was 70. For the same compound, the “SORHA phytotoxicity rating (0-100)” value ([15]; 63 g al/ha) was 40, the “SORHA phytotoxicity rating (0-100)” value ([15]; 500 g al/ha) was 80 and the “ECHCG phytotoxicity rating (0-100)” value ([16]; 63 g al/ha) was 0. For the same compound, the “ECHCG phytotoxicity rating (0-100)” value ([16]; 500 g al/ha) was 50, the “SETVI phytotoxicity rating (0-100)” value ([17]; 63 g al/ha) was 0 and the “SETVI phytotoxicity rating (0-100)” value ([17]; 500 g al/ha) was 70. For the same compound, the “IPOHE phytotoxicity rating (0-100)” value ([18]; 63 g al/ha) was 70, the “IPOHE phytotoxicity rating (0-100)” value ([18]; 500 g al/ha) was 100 and the “CHEAL phytotoxicity rating (0-100)” value ([19]; 63 g al/ha) was 0. For the same compound, the “CHEAL phytotoxicity rating (0-100)” value ([19]; 500 g al/ha) was 100, the “DIGSA phytotoxicity rating (0-100)” value ([20]; 63 g al/ha) was 20 and the “DIGSA phytotoxicity rating (0-100)” value ([20]; 500 g al/ha) was 40. The “AMARE phytotoxicity rating (0-100)” value ([21]; 63 g al/ha) was 100, the “AMARE phytotoxicity rating (0-100)” value ([21]; 500 g al/ha) was 100 and the “ABUTH phytotoxicity rating (0-100)” value ([22]; 63 g al/ha) was 30. For the same compound, the “ABUTH phytotoxicity rating (0-100)” value ([22]; 500 g al/ha) was 90, the “CORN crop damage rating (0-100)” value ([23]; 63 g al/ha) was 0 and the “CORN crop damage rating (0-100)” value ([23]; 500 g al/ha) was 0. The “RICE crop damage rating (0-100)” value ([24]; 63 g al/ha) was 20, the “RICE crop damage rating (0-100)” value ([24]; 500 g al/ha) was 50 and the “SOY crop damage rating (0-100)” value ([25]; 63 g al/ha) was 0. For the same compound, the “SOY crop damage rating (0-100)” value ([25]; 500 g al/ha) was 80.
With `Cn1nc(-c2cc(Oc3cccc(F)n3)c(Cl)cc2F)c(Cl)c1C(F)(F)F` [Compound 1-5] the “phytotoxicity rating SORHA” value ([1]; 125 g ai/ha) was 50, the “phytotoxicity rating SORHA” value ([1]; 500 g ai/ha) was 95 and the “phytotoxicity rating ECHCG” value ([2]; 125 g ai/ha) was 50. For the same compound, the “phytotoxicity rating ECHCG” value ([2]; 500 g ai/ha) was 90, the “phytotoxicity rating AMBEL” value ([3]; 125 g ai/ha) was 50 and the “phytotoxicity rating AMBEL” value ([3]; 500 g ai/ha) was 90. For the same compound, the “phytotoxicity rating SETVI” value ([4]; 125 g ai/ha) was 100, the “phytotoxicity rating SETVI” value ([4]; 500 g ai/ha) was 100 and the “phytotoxicity rating IPOHE” value ([5]; 125 g ai/ha) was 30. For the same compound, the “phytotoxicity rating IPOHE” value ([5]; 500 g ai/ha) was 70, the “phytotoxicity rating CHEAL” value ([6]; 125 g ai/ha) was 100 and the “phytotoxicity rating CHEAL” value ([6]; 500 g ai/ha) was 100. The “phytotoxicity rating DIGSA” value ([7]; 125 g ai/ha) was 100, the “phytotoxicity rating DIGSA” value ([7]; 500 g ai/ha) was 90 and the “phytotoxicity rating AMARE” value ([8]; 125 g ai/ha) was 100. The “phytotoxicity rating AMARE” value ([8]; 500 g ai/ha) was 100, the “phytotoxicity rating CASOB” value ([9]; 125 g ai/ha) was 50 and the “phytotoxicity rating CASOB” value ([9]; 500 g ai/ha) was 100. For the same compound, the “phytotoxicity rating ABUTH” value ([10]; 125 g ai/ha) was 70, the “phytotoxicity rating ABUTH” value ([10]; 500 g ai/ha) was 90 and the “crop damage rating CORN” value ([11]; 125 g ai/ha) was 20. The “crop damage rating CORN” value ([11]; 500 g ai/ha) was 30, the “crop damage rating RICE” value ([12]; 125 g ai/ha) was 30 and the “crop damage rating RICE” value ([12]; 500 g ai/ha) was 20. For the same compound, the “crop damage rating SOY” value ([13]; 125 g ai/ha) was 0, the “crop damage rating SOY” value ([13]; 500 g ai/ha) was 0 and the “AMBEL phytotoxicity rating (0-100)” value ([14]; 63 g al/ha) was 30. For the same compound, the “AMBEL phytotoxicity rating (0-100)” value ([14]; 500 g al/ha) was 90, the “SORHA phytotoxicity rating (0-100)” value ([15]; 63 g al/ha) was 30 and the “SORHA phytotoxicity rating (0-100)” value ([15]; 500 g al/ha) was 95. For the same compound, the “ECHCG phytotoxicity rating (0-100)” value ([16]; 63 g al/ha) was 30, the “ECHCG phytotoxicity rating (0-100)” value ([16]; 500 g al/ha) was 100 and the “SETVI phytotoxicity rating (0-100)” value ([17]; 63 g al/ha) was 0. The “SETVI phytotoxicity rating (0-100)” value ([17]; 500 g al/ha) was 100, the “IPOHE phytotoxicity rating (0-100)” value ([18]; 63 g al/ha) was 95 and the “IPOHE phytotoxicity rating (0-100)” value ([18]; 500 g al/ha) was 100. For the same compound, the “CHEAL phytotoxicity rating (0-100)” value ([19]; 63 g al/ha) was 95, the “CHEAL phytotoxicity rating (0-100)” value ([19]; 500 g al/ha) was 100 and the “DIGSA phytotoxicity rating (0-100)” value ([20]; 63 g al/ha) was 50. The “DIGSA phytotoxicity rating (0-100)” value ([20]; 500 g al/ha) was 99, the “AMARE phytotoxicity rating (0-100)” value ([21]; 63 g al/ha) was 100 and the “AMARE phytotoxicity rating (0-100)” value ([21]; 500 g al/ha) was 100. For the same compound, the “ABUTH phytotoxicity rating (0-100)” value ([22]; 63 g al/ha) was 30, the “ABUTH phytotoxicity rating (0-100)” value ([22]; 500 g al/ha) was 100 and the “CORN crop damage rating (0-100)” value ([23]; 63 g al/ha) was 10. The “CORN crop damage rating (0-100)” value ([23]; 500 g al/ha) was 30, the “RICE crop damage rating (0-100)” value ([24]; 63 g al/ha) was 40 and the “RICE crop damage rating (0-100)” value ([24]; 500 g al/ha) was 80. The “SOY crop damage rating (0-100)” value ([25]; 63 g al/ha) was 40 and the “SOY crop damage rating (0-100)” value ([25]; 500 g al/ha) was 90.
